Source: ChEMBL document CHEMBL3045860, “The effect of sodium bicarbonate alone or in combination with a reduced dose of tebuconazole on the control of apple scab” (Crop Prot, 2006)

Columns and labels:
Assay type in all cases: organism-based
Details in all cases: in vivo
Malus domestica [1] = experiment: Phytotoxicity in Malus x domestica (apple) assessed as width of harvested fruit at 0.025% […] (reference value: 76 mm)
Malus domestica [2] = experiment: Phytotoxicity in Malus x domestica (apple) assessed as total soluble solid of harvested fruit at 0.025% by refractometric analysis (reference value: 14%)
Malus domestica [3] = experiment: Phytotoxicity in Malus x domestica (apple) assessed as mass of harvested fruit at 0.025% […] (reference value: 181 g)
Malus domestica [4] = experiment: Phytotoxicity in Malus x domestica (apple) assessed as length of harvested fruit at 0.025% […] (reference value: 63.3 mm)

**Q.** With `CC(C)(C)C(O)(CCc1ccc(Cl)cc1)Cn1cncn1` (centres undefined) [TEBUCONAZOLE] as the compound, how does the Activity (Malus domestica [1]) read?
**A.** 80.3 mm

**Q.** And the Activity (Malus domestica [2])?
**A.** 14.1%

**Q.** And the Activity (Malus domestica [3])?
**A.** 229 g

**Q.** What about the Activity (Malus domestica [4]) of the same compound?
**A.** 68 mm
